# Patent publication US6010890A, “Method for viral inactivation and compositions for use in same” (New York Blood Center, Inc., priority 1997, dated 2000)
# “Also recorded” adds a separate entry of the source. Where two headings read alike, the source gives them in different places.
# What was measured:
# RBC [1] = assay: Binding of Pc4 to RBC in RBCC (HPLC after extraction); format: in vitro ADME, human; conditions: for Pc4 Bound to RBC: 2 μM
# Description: The amount of Pc4 bound to RBC in the RBCC was measured using HPLC and extraction procedure described previously (Zuk, M. M., et al. J. Chromat. B Biomed. Appl. 673:220-224 (1995)). Amount of Pc4 was expressed as a percentage of the total recovered in RBCC. Recovery of Pc4 was about 90% (±10%).
# ^1 Pc4 was added into RBCC at 2 μM final concentration. At various
# times thereafter at room temperature, RBC were separated by
# centrifugation, rinsed 5 times with PBS, and Pc4 was extracted and
# analyzed by HPLC, as described. Pc4 not bound to RBC was recovered
# quantitatively from the plasma.
# ^1 Pc4 was added into RBCC at 2 μM final concentration formulated
# in the indicated liposomes. After 35 minutes at 4° C., RBC were
# separated by centrifugation, rinsed 5 times with PBS, and Pc4 was analyze
# BDV = assay: Virus inactivation in RBCC using Pc4 and red light: BDV (Example 2); format: cell-based; conditions: for Light Dose (for ≥6 log10 virus kill): Pc4 2 μM with 4 mM cysteine, 1 mM tocopherol succinate, 0.5 mM carnitine, 670 nm LED
# VSV [2] = format: cell-based; conditions: for Light Dose (for ≥6 log10 virus kill): Pc4 2 μM with 4 mM cysteine, 1 mM tocopherol succinate, 0.5 mM carnitine, 670 nm LED
# VSV [3] = format: cell-based
# HIV (cell-assoc.) = assay: Virus inactivation in RBCC using Pc4 and red light: HIV cell-associated (Example 2); format: cell-based
# RBC [4] = assay: RBC hemolysis during storage following virucidal treatment (Example 1); format: cell-based, human
# Description: FIG. 2 represents RBC hemolysis during storage following virucidal treatment. Pc4 was added into RBCC in the indicated delivery vehicle at a final concentration of 2 μM and exposed to 90 J/cm2 broad band red light at room temperature after the indicated incubation time at room temperature. The treated RBCC were stored at 4° C. prior to assay.
# FIG. 4 represents RBC hemolysis during storage following virucidal treatment. PC4 was added to RBCC in the indicated liposomal formulations at 2 μM and exposed to 668 nm light at room temperature and the indicated dose after 5 minutes incubation. The treated RBCC were stored at 4° C. prior to assay.
# FIG. 6 represents RBC hemolysis during storage following virucidal treatment. […] The treated RBCC were stored at 4° C. prior to assay.
# RBCC samples (3 ml in polystyrene tubes) at hematocrit of 58-60% in ADSOL (obtained from Blood Services, New York Blood Center) were irradiated with red light either as a broad band (600-800 nm) or as a narrow band at 668 nm or 700 nm. Broad band light was from a 300 W xenon lamp (Oriel Corp., Stratford, Conn.) equipped with a cutoff filter (λ>600 nm) with an irradiance of 25 mW/cm^2. Narrow band light (27 nm bandwidth at half-height) was from LED arrays (Efos Canada, Inc., Mississauga, Ontario, Canada) emitting at either 668 nm or 700 nm with an irradiance of 50 mW/cm^2. During irradiation the samples were rotated and rolled on a hematology mixer (Fisher Scientific, Inc., Pittsburgh, Pa.) to obtain even exposure. Temperature was kept at 25 or 4° C. by an air stream of appropriate temperature.
# Samples of RBCC were stored after treatment at 4° C. The extent of hemolysis was determined by comparing the hemoglobin in the supernatant to the total hemoglobin. The total hemoglobin was determined by using the Drabkin reagent (Sigma Procedure #525, Sigma Chemical Co., St. Louis, Mo.). The absorption at 540 nm was used to calculate the amount of hemoglobin released in the supernatant.
# baboon RBC = assay: Circulatory survival of baboon RBC after virucidal treatment (preliminary); format: in vivo
# HIV (cell-free) = assay: Virus inactivation in RBCC using Pc4 and red light: HIV cell-free (Example 2); format: cell-based; conditions: for Light Dose (for ≥6 log10 virus kill): HIV (cell-free), Pc4 2 μM with 4 mM cysteine, 1 mM tocopherol succinate, 0.5 mM carnitine, 670 nm LED
# HIV = format: cell-based
# RBC [5] = assay: Hemolysis after 21 day storage of RBCC treated with liposomal Pc4 and formulations of tocopherol succinate (Example 3); format: cell-based; conditions: with 2 μM liposomal Pc4, 10 J/cm^2, 670 nm, 4° C.
# Description: RBCC were treated with 2 μM Pc4 in POPC:DOPC=4:1 liposomes in the presence of 1 mM tocopherol succinate in the formulations presented in Table 4 below, and exposed to 10 J/cm^2 of red light (670 nm) emitted by LED array. The RBCC were then stored for 21 days at 4° C.
# Description for rabbit RBC: Pc4 was added to rabbit RBCC in POPC:DOPS=4:1 liposomes at 2 μM and exposed to 0, 10 and 15 J/cm^2, as indicated, of 700 nm light at room temperature after 5 minutes pre-irradiation incubation. The treated RBCC were labeled with ^51 CrO^2- and their circulatory survival assayed as described in Materials and Methods.
# Rabbit RBCC were treated as described for human red cells and their circulatory survival was determined as described previously (Rywkin, S., et al. Photochem. Photobiol. 56:463-469 (1992). Briefly, treated red cells were labelled with 1 μCi/ml Na2 ^51 CrO4 for 1 hour at room temperature and then thoroughly washed with PBS. The labelled cells were infused autologously. At intervals, 1 ml blood was withdrawn and the radioactivity associated with RBC was determined.
compound,measurement,setting,value
"CN(C)CCC[Si](C)(C)O[Si]1(O)n2c3c4ccccc4c2N=C2N=C(N=c4c5ccccc5c(n41)=NC1=NC(=N3)c3ccccc31)c1ccccc12 (stereo not drawn) [Pc4, hydroxysiloxydimethylpropyl-N-dimethyl silicon phthalocyanine]",Pc4 binding to RBC at room temperature compared with 4° C.,"RBC [1]; POPC:DOPS=9:1 liposomes, Tables 1 and 2",more binding to RBC than at 4 °C
same,Pc4 Bound to RBC,"RBC [1]; delivery vehicle CRM, incubation time 0 min, room temperature",59%
same,Pc4 Bound to RBC,"RBC [1]; delivery vehicle CRM, incubation time 5 min, room temperature",58%
same,Pc4 Bound to RBC,"RBC [1]; delivery vehicle CRM, incubation time 30 min, room temperature",58%
same,Pc4 Bound to RBC,"RBC [1]; delivery vehicle CRM, incubation time 90 min, room temperature",64%
same,Pc4 Bound to RBC,"RBC [1]; delivery vehicle DMSO, incubation time 0 min, room temperature",54%
same,Pc4 Bound to RBC,"RBC [1]; delivery vehicle DMSO, incubation time 5 min, room temperature",54%
same,Pc4 Bound to RBC,"RBC [1]; delivery vehicle DMSO, incubation time 30 min, room temperature",56%
same,Pc4 Bound to RBC,"RBC [1]; delivery vehicle DMSO, incubation time 90 min, room temperature",54%
same,Pc4 Bound to RBC,"RBC [1]; delivery vehicle Liposomes (POPC:DOPS = 9:1), incubation time 0 min, room temperature",6%
same,Pc4 Bound to RBC,"RBC [1]; delivery vehicle Liposomes (POPC:DOPS = 9:1), incubation time 5 min, room temperature",9%
same,Pc4 Bound to RBC,"RBC [1]; delivery vehicle Liposomes (POPC:DOPS = 9:1), incubation time 30 min, room temperature",15%
same,Pc4 Bound to RBC,"RBC [1]; delivery vehicle Liposomes (POPC:DOPS = 9:1), incubation time 90 min, room temperature",44%
same,Pc4 Bound to RBC,"RBC [1]; liposomal preparation POPC:DOPS = 1:1, 35 minutes at 4° C.",0.8%
same,Pc4 Bound to RBC,"RBC [1]; liposomal preparation POPC:DOPS = 1:2, 35 minutes at 4° C.",1.0%
same,Pc4 Bound to RBC,"RBC [1]; liposomal preparation POPC:DOPS = 4:1, 35 minutes at 4° C.",4.4%
same,Pc4 Bound to RBC,"RBC [1]; liposomal preparation POPC:DOPS = 9:1, 35 minutes at 4° C.",4.8%
same,Pc4 Bound to RBC,"RBC [1]; liposomal preparation POPC:DOPS:PEG = 8:1:1, 35 minutes at 4° C.",23.5%
same,Pc4 Bound to RBC,"RBC [1]; liposomal preparation POPC:DOPS:chol = 9:1:10, 35 minutes at 4° C.",33.7%
same,"Pc4 binding to red cells, effect of liposome composition","RBC [1]; words, PEG, cholesterol or DOPS ratio as stated (Table 2)",progressively reduced binding of Pc4 to red cells
same,Light Dose (for ≥6 log10 virus kill),BDV; Blood Bags (50 ml),30 J/cm2
same,Light Dose (for ≥6 log10 virus kill),BDV; Test Tubes (3 ml),7 J/cm2
same,virus kill,BDV; at the light doses of Table 3,≥ 6 log10
same,Light Dose (for ≥6 log10 virus kill),VSV [2]; Blood Bags (50 ml),22 J/cm2
same,Light Dose (for ≥6 log10 virus kill),VSV [2]; Test Tubes (3 ml),5 J/cm2
same,virus kill,VSV [2]; at the light doses of Table 3,≥ 6 log10
same,"inactivation of VSV, 668 vs 700 nm LED","VSV [3]; Pc4 2 μM in POPC:DOPS=4:1 liposomes, 4° C. (FIG. 5)",equally effective
same,"rate of inactivation of VSV, dependence on pre-irradiation incubation time","VSV [3]; liposomal Pc4 2 μM, broad band red light (FIG. 1)",does not depend on time of incubation of liposomal Pc4 prior to light exposure
same,"VSV kill, effect of incubation temperature",VSV [3]; room temperature vs 4° C.,not affected by the incubation temperature
same,Light Dose (for ≥6 log10 virus kill),"HIV (cell-assoc.); Blood Bags (50 ml), Pc4 2 μM with 4 mM cysteine, 1 mM tocopherol succinate, 0.5 mM carnitine, 670 nm LED",55 J/cm2
same,Light Dose (at this dose only 4 log10 kill),"HIV (cell-assoc.); Test Tubes (3 ml), Pc4 2 μM with 4 mM cysteine, 1 mM tocopherol succinate, 0.5 mM carnitine, 670 nm LED",15 J/cm2
same,virus kill,"HIV (cell-assoc.); Test Tubes, 15 J/cm2",4 log10
same,"hemolysis development during storage, 668 nm compared with 700 nm LED","RBC [4]; Pc4 2 μM in POPC:DOPS=4:1 liposomes, 10 J/cm^2 (FIG. 6)",much faster
same,"rate of hemolysis during storage, 700 nm LED compared with untreated control","RBC [4]; Pc4 2 μM in POPC:DOPS=4:1 liposomes, 10 J/cm^2 of 700 nm light (FIG. 6)",only slightly faster than in control
same,RBC damage / hemolysis at equivirucidal doses,"RBC [4]; Pc4 2 μM in POPC:DOPS=4:1 liposomes, 668 nm (FIG. 4)",least RBC damage; also recorded: minimal hemolysis
same,"RBC hemolysis during storage, liposomes vs other vehicles","RBC [4]; Pc4 2 μM, 90 J/cm2 broad band red light, 4° C. storage (FIG. 2)",less hemolysis
same,"RBC hemolysis during storage, effect of incubation time","RBC [4]; liposomal Pc4 2 μM, 90 J/cm2 broad band red light (FIG. 2)",incubation for 5 minutes was better than for 30 minutes
same,hemolysis following a virucidal light dose,"RBC [4]; liposomal Pc4, 10 J/cm^2, 700 nm, over 3 weeks storage, 30240 min, 2 µM",≤ 1%
same,effect on circulatory survival of red cells,"baboon RBC; baboon, 10 J/cm^2 of 700 nm light",only a slight effect
same,24 hour recovery in vivo of the treated RBC,baboon RBC; baboons,exceeded 90%
same,circulatory half-life and 24 hour recovery,"baboon RBC; baboons, liposomal Pc4, 10 J/cm^2, 700 nm",essentially normal
same,circulatory half-life of RBC,"baboon RBC; baboons, liposomal Pc4 and 10 J/cm2 of 700 nm light, from 13.2 days, preliminary",278 h
same,reduction of circulatory survival of red cells,"rabbit RBC; rabbit, 10 J/cm^2 of 700 nm light (FIG. 7)",about 30%
same,24 hour recovery in vivo of the treated RBC,rabbit RBC; rabbits,exceeded 90%
same,circulatory half-life of RBC,"rabbit RBC; rabbits, 10 J/cm^2 of 700 nm light, control 10.5 days (FIG. 7)",180 h
same,circulatory half-life and 24 hour recovery,"rabbit RBC; rabbits, liposomal Pc4, 10 J/cm^2, 700 nm",close to normal
same,Light Dose (for ≥6 log10 virus kill),HIV (cell-free); Blood Bags (50 ml),55 J/cm2
same,Light Dose (for ≥6 log10 virus kill),HIV (cell-free); Test Tubes (3 ml),15 J/cm2
same,virus kill,"HIV (cell-free); HIV, at the light doses of Table 3",≥ 6 log10
same,viral reduction of HIV versus RBC hemolysis,HIV,best viral reduction of HIV with the least amount of RBC hemolysis
Cc1c(C)c2c(c(C)c1OC(=O)CCC(=O)O)CCC(C)(CCCC(C)CCCC(C)CCCC(C)C)O2 (stereo not drawn) [α-tocopherol succinate],Hemolysis After 21 Day Storage,RBC [5]; 1 mM α-tocopherol succinate formulated in Ethanol,10.5%
same,Hemolysis After 21 Day Storage,RBC [5]; 1 mM α-tocopherol succinate formulated in POPC:DOPS = 4:1,18.3%
same,Hemolysis After 21 Day Storage,RBC [5]; 1 mM α-tocopherol succinate formulated in POPC:DOPS:chol = 9:1:10,6.1%
same,Hemolysis After 21 Day Storage,RBC [5]; 1 mM α-tocopherol succinate formulated in POPC,1.2%
